Reference: the supplement of paper PMC11368000

Assays:
Conditions in all cases: exposure time: 90 min
[1] = tested on: 1518 (donor line of iPSC-derived cardiomyocytes); experiment: POD (EC95) for loss of peak frequency (asystole) vs vehicle; higher = less potent (higher point of departure)
Protocol: (§1)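 Human iPSC-derived cardiomyocytes from 16 donors were exposed for 90 min at 37 °C to each PFAS at 0.1, 1, 10 and 100 µM in 0.5% DMSO, 384-well plates. Kinetic Ca2+ flux (FLIPR) and Hoechst nuclei counts were normalised to vehicle wells and fitted with a hierarchical Bayesian Hill model to give donor-specific PODs: EC05 for beat-rate increase or decrease and for decay-to-rise ratio increase (QT proxy), EC95 for peak-frequency loss (asystole), EC10 for total cell number loss. 0.03 µM is the lower bound.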

[2] = tested on: 1531 (donor line of iPSC-derived cardiomyocytes); experiment: as above
Protocol: as §1

[3] = tested on: 1083 (donor line of iPSC-derived cardiomyocytes); experiment: as above
Protocol: as §1

[4] = tested on: 30171 (donor line of iPSC-derived cardiomyocytes); experiment: as above
Protocol: as §1

[5] = tested on: 1518; experiment: POD (EC10) for decrease in total cell number (cytotoxicity) vs vehicle; higher = less potent (higher point of departure)
Protocol: as §1

[6] = tested on: 1531; experiment: as above
Protocol: as §1

[7] = tested on: 1083; experiment: as above
Protocol: as §1

[8] = tested on: 1309 (donor line of iPSC-derived cardiomyocytes); experiment: as above
Protocol: as §1

[9] = tested on: 30171; experiment: as above
Protocol: as §1

[10] = tested on: 1535 (donor line of iPSC-derived cardiomyocytes); experiment: as above
Protocol: as §1

[11] = tested on: 1118 (donor line of iPSC-derived cardiomyocytes); experiment: as above
Protocol: as §1

[12] = tested on: 20032 (donor line of iPSC-derived cardiomyocytes); experiment: as above
Protocol: as §1

[13] = tested on: 1565 (donor line of iPSC-derived cardiomyocytes); experiment: as above
Protocol: as §1

[14] = tested on: 1434 (donor line of iPSC-derived cardiomyocytes); experiment: as above
Protocol: as §1

[15] = tested on: 1368 (donor line of iPSC-derived cardiomyocytes); experiment: as above
Protocol: as §1

[16] = tested on: 20084 (donor line of iPSC-derived cardiomyocytes); experiment: as above
Protocol: as §1

[17] = tested on: 1392 (donor line of iPSC-derived cardiomyocytes); experiment: as above
Protocol: as §1

[18] = tested on: 30145 (donor line of iPSC-derived cardiomyocytes); experiment: as above
Protocol: as §1

[19] = tested on: 1516 (donor line of iPSC-derived cardiomyocytes); experiment: as above
Protocol: as §1

[20] = tested on: 11235 (donor line of iPSC-derived cardiomyocytes); experiment: as above
Protocol: as §1

Compound | POD vs vehicle [1] [µM] | POD vs vehicle [2] [µM] | POD vs vehicle [3] [µM] | POD vs vehicle [4] [µM] | POD vs vehicle [5] [µM] | POD vs vehicle [6] [µM] | POD vs vehicle [7] [µM] | POD vs vehicle [8] [µM] | POD vs vehicle [9] [µM] | POD vs vehicle [10] [µM] | POD vs vehicle [11] [µM] | POD vs vehicle [12] [µM] | POD vs vehicle [13] [µM] | POD vs vehicle [14] [µM] | POD vs vehicle [15] [µM] | POD vs vehicle [16] [µM] | POD vs vehicle [17] [µM] | POD vs vehicle [18] [µM] | POD vs vehicle [19] [µM] | POD vs vehicle [20] [µM]
O=C(CC(=O)C(F)(F)C(F)(F)F)C(F)(F)F [3H,3H-Perfluoro-2,4-hexanedione] | > 100 | > 100 | > 100 | 79.9 | > 100 | > 100 | > 100 | > 100 | > 100 | > 100 | 25.1 | > 100 | > 100 | 21.9 | > 100 | > 100 | 93.5 | > 100 | 74.4 | > 100
O=S(=O)(O)C(F)(F)C(F)(F)C(F)(F)C(F)(F)F [Perfluorobutanesulfonic_acid] | > 100 | > 100 | > 100 | > 100 | > 100 | > 100 | > 100 | > 100 | > 100 | > 100 | > 100 | > 100 | > 100 | > 100 | > 100 | > 100 | > 100 | > 100 | > 100 | > 100
O=C(O)C=C(C(F)(F)F)C(F)(F)F [3,3-Bis(trifluoromethyl)-2-propenoic_acid] | > 100 | > 100 | > 100 | > 100 | > 100 | > 100 | > 100 | > 100 | > 100 | > 100 | > 100 | > 100 | > 100 | > 100 | > 100 | > 100 | > 100 | > 100 | > 100 | > 100
NS(=O)(=O)C(F)(F)C(F)(F)C(F)(F)C(F)(F)C(F)(F)C(F)(F)F [Perfluorohexanesulfonamide] | > 100 | 40.8 | > 100 | 49.3 | > 100 | > 100 | > 100 | 70.7 | > 100 | > 100 | 14.9 | > 100 | > 100 | 20.6 | > 100 | > 100 | > 100 | > 100 | 61.1 | > 100
NC(=O)C(F)(F)C(F)(F)C(F)(F)C(F)(F)C(F)(F)C(F)(F)C(F)(F)F [Perfluorooctanamide] | > 100 | > 100 | > 100 | > 100 | > 100 | > 100 | > 100 | > 100 | > 100 | > 100 | > 100 | > 100 | > 100 | > 100 | > 100 | > 100 | > 100 | > 100 | > 100 | > 100
NC(=O)C(F)(F)C(F)(F)C(F)(F)C(F)(F)F [Nonafluoropentanamide] | > 100 | > 100 | > 100 | > 100 | > 100 | > 100 | > 100 | > 100 | > 100 | > 100 | > 100 | > 100 | > 100 | > 100 | > 100 | > 100 | > 100 | > 100 | > 100 | > 100
OCC(F)(F)OC(F)(F)C(F)(F)OC(F)(F)C(F)(F)OC(F)(F)F [Fluorinated_triethylene_glycol_monomethyl_ether] | > 100 | > 100 | > 100 | > 100 | – | – | > 100 | 65.6 | > 100 | > 100 | > 100 | – | > 100 | – | > 100 | 0.358 | 2.04 | > 100 | > 100 | > 100
O=C(O)C(F)(F)C(F)(F)C(F)(F)C(F)(F)C(=O)O [Octafluoroadipic_acid] | > 100 | > 100 | > 100 | > 100 | – | > 100 | > 100 | > 100 | > 100 | > 100 | > 100 | – | – | 23.3 | > 100 | > 100 | 54.6 | > 100 | > 100 | > 100
OCC(F)(F)C(F)(F)C(F)(F)C(F)(F)C(F)(F)C(F)(F)F [6:1 Fluorotelomer alcohol] | > 100 | > 100 | 84.3 | 80.8 | – | > 100 | > 100 | 98.6 | > 100 | > 100 | 1.53 | > 100 | > 100 | 13.1 | > 100 | > 100 | > 100 | > 100 | – | > 100
OCCC(F)(F)C(F)(F)C(F)(F)C(F)(F)F [4:2 Fluorotelomer alcohol] | > 100 | > 100 | > 100 | > 100 | > 100 | > 100 | > 100 | > 100 | – | > 100 | > 100 | > 100 | > 100 | > 100 | > 100 | > 100 | > 100 | 49.9 | > 100 | > 100
